Values quoted from earlier work, collected in US20210299134A1, “TREATMENT OF B CELL MALIGNANCIES” (MEI Pharma, Inc., priority 2018, published 2021).

Tests used:
[1] = tested on: B-cell malignancies; conditions: a day per week dosing after once daily dosing for two 28-day cycles; preliminary data; cited from earlier work
[2] = cited from earlier work
[3] = tested on: TREGs; conditions: after administration of a single dose; cited from earlier work

| Molecule | incidence of severe irAEs on IS [1] | tumor progression on IS [1] | plasma levels versus tissue levels ([2]; FIG. 6B) | plasma levels >IC90, share of time ([2]; once weekly dosing) | time to TREGs repopulation [3] |
| --- | --- | --- | --- | --- | --- |
| CCOc1c([C@H](C)n2nc(C)c3c(N)ncnc32)cc(Cl)c(F)c1[C@@H]1CNC(=O)C1 [parsaclisib] | decrease in the incidence of severe irAEs | high rate of tumor progression | plasma approximates tissue levels | 32% |  |
| denileukin diftitox |  |  |  |  | approximately 14 days |
